Source: ChEMBL document CHEMBL3124779, “Discovery of ABT-267, a pan-genotypic inhibitor of HCV NS5A” (J Med Chem, 2014)

How the values were obtained:
Hepatitis C virus [1] = experiment: Antiviral activity against HCV1b harboring NS5A L31F mutant infected in human HuH7 cells assessed as inhibition of viral replication after 4 days by luciferase reporter gene assay; assay type: functional, Hepacivirus hominis, genotype 1b, Huh-7
Hepatitis C virus [2] = experiment: Ratio of EC50 for HCV1a H77 infected in human HuH7 cells in presence of 40% human plasma to EC50 for HCV1a H77 infected in human HuH7 cells in absence of 40% human plasma; assay type: functional, Hepacivirus hominis, genotype 1a H77, Huh-7
Hepatitis C virus [3] = experiment: Resistant ratio of EC50 for wild type HCV1a to EC50 for HCV1a harboring NS5A Y93N mutant infected in human HuH7 cells; assay type: functional, Hepacivirus hominis, subtype 1a, Huh-7
Hepatitis C virus [4] = experiment: Antiviral activity against HCV4a infected in human HuH7 cells assessed as inhibition of viral replication after 4 days by luciferase reporter gene assay; assay type: functional, organism-based, Hepacivirus hominis; conditions: genotype 4a, Huh-7, 96 h
[5] = Lipophilicity, log D of the compound at pH 7.4 by HPLC analysis; assay type: physicochemical; conditions: buffer
Hepatitis C virus [6] = experiment: Resistant ratio of EC50 for wild type HCV1a to EC50 for HCV1a harboring NS5A Y93H mutant infected in human HuH7 cells; assay type: functional, Hepacivirus hominis, subtype 1a, Huh-7
[7] = Half life in monkey at 2.5 mg/kg, po; assay type: ADME, organism-based, Macaca mulatta; parameters: dose 2.5 mg/kg, route oral; conditions: rhesus monkey, in vivo
[8] = Tmax in dog at 2.5 mg/kg, po; assay type: ADME, organism-based, Canis lupus familiaris; parameters: dose 2.5 mg/kg, route oral; conditions: in vivo
Hepatitis C virus [9] = experiment: Antiviral activity against HCV2a infected in human HuH7 cells assessed as inhibition of viral replication after 4 days by luciferase reporter gene assay; assay type: functional, organism-based, Hepacivirus hominis; conditions: genotype 2a, Huh-7, 96 h
[10] = Half life in dog at 1 mg/kg, iv; assay type: ADME, organism-based, Canis lupus familiaris; parameters: dose 1 mg/kg, route intravenous; conditions: in vivo
[11] = AUC in dog at 2.5 mg/kg, po; assay type: ADME, organism-based, Canis lupus familiaris; parameters: dose 2.5 mg/kg, route oral; conditions: plasma
Hepatitis C virus [12] = experiment: Resistant ratio of EC50 for wild type HCV1b to EC50 for HCV1b harboring NS5A L28M and Y93H mutant infected in human HuH7 cells; assay type: functional, Hepacivirus hominis, genotype 1b, Huh-7
Hepatitis C virus [13] = experiment: Resistant ratio of EC50 for wild type HCV1a to EC50 for HCV1a harboring NS5A M28V mutant infected in human HuH7 cells; assay type: functional, Hepacivirus hominis, subtype 1a, Huh-7
[14] = Cmax in dog at 2.5 mg/kg, po; assay type: ADME, organism-based, Canis lupus familiaris; parameters: dose 2.5 mg/kg, route oral; conditions: in vivo
[15] = Cmax in monkey at 2.5 mg/kg, po; assay type: ADME, organism-based, Macaca mulatta; parameters: dose 2.5 mg/kg, route oral; conditions: rhesus monkey, in vivo
Hepatitis C virus [16] = experiment: Antiviral activity against HCV1b harboring NS5A L28M and Y93H mutant infected in human HuH7 cells assessed as inhibition of viral replication after 4 days by luciferase reporter gene assay; assay type: functional, Hepacivirus hominis, genotype 1b, Huh-7
[17] = Tmax in rat at 3 mg/kg, po; assay type: ADME, organism-based; parameters: dose 3 mg/kg, route oral; conditions: in vivo
Hepatitis C virus [18] = experiment: Resistant ratio of EC50 for wild type HCV1b to EC50 for HCV1b harboring NS5A Y93H mutant infected in human HuH7 cells; assay type: functional, Hepacivirus hominis, genotype 1b, Huh-7
[19] = Half life in rat at 3 mg/kg, po; assay type: ADME, organism-based; parameters: dose 3 mg/kg, route oral; conditions: in vivo
Hepatitis C virus [20] = experiment: Antiviral activity against HCV2b infected in human HuH7 cells assessed as inhibition of viral replication after 4 days by luciferase reporter gene assay; assay type: functional, organism-based, Hepacivirus hominis; conditions: genotype 2b, Huh-7, 96 h
Hepatitis C virus [21] = experiment: Antiviral activity against HCV1a harboring NS5A Y93H mutant infected in human HuH7 cells assessed as inhibition of viral replication after 4 days by luciferase reporter gene assay; assay type: functional, Hepacivirus hominis, subtype 1a, Huh-7
Hepatitis C virus [22] = experiment: Antiviral activity against HCV1a harboring NS5A Y93N mutant infected in human HuH7 cells assessed as inhibition of viral replication after 4 days by luciferase reporter gene assay; assay type: functional, Hepacivirus hominis, subtype 1a, Huh-7
Hepatitis C virus [23] = experiment: Resistant ratio of EC50 for wild type HCV1b to EC50 for HCV1b harboring NS5A L31F and Y93H mutant infected in human HuH7 cells; assay type: functional, Hepacivirus hominis, genotype 1b, Huh-7
Hepatitis C virus [24] = experiment: Antiviral activity against HCV3a infected in human HuH7 cells assessed as inhibition of viral replication after 4 days by luciferase reporter gene assay; assay type: functional, organism-based, Hepacivirus hominis; conditions: genotype 3a, Huh-7, 96 h
Hepatitis C virus [25] = experiment: Antiviral activity against HCV1a harboring NS5A Q30R mutant infected in human HuH7 cells assessed as inhibition of viral replication after 4 days by luciferase reporter gene assay; assay type: functional, Hepacivirus hominis, subtype 1a, Huh-7
Hepatitis C virus [26] = experiment: Resistant ratio of EC50 for wild type HCV1b to EC50 for HCV1b harboring NS5A L31V mutant infected in human HuH7 cells; assay type: functional, Hepacivirus hominis, genotype 1b, Huh-7
Homo sapiens [27] = species on record: Homo sapiens; experiment: Toxicity in HCV1 infected patient assessed as mortality at 5 to 200 mg qd for 3 days; assay type: organism-based; conditions: in vivo, 72 h
[28] = Metabolic stability in human liver microsomes assessed as compound remaining after 30 mins; assay type: ADME; conditions: read-out: Stability
Homo sapiens [29] = species on record: Homo sapiens; experiment: Toxicity in HCV1 infected patient assessed as laboratory abnormalities at 5 to 200 mg qd for 3 days; assay type: organism-based; conditions: in vivo, 72 h
Hepatitis C virus [30] = experiment: Antiviral activity against HCV1a H77 infected in human HuH7 cells assessed as inhibition of viral replication after 4 days by luciferase reporter gene assay; assay type: functional, organism-based, Hepacivirus hominis; conditions: genotype 1a H77, Huh-7, 96 h
Hepatitis C virus [31] = experiment: Antiviral activity against HCV1b Con1 infected in human HuH7 cells assessed as inhibition of viral replication after 4 days by luciferase reporter gene assay in presence of 40% human plasma; assay type: functional, organism-based, Hepacivirus hominis; conditions: isolate Con1, Huh-7, Plasma, 96 h

With `COC(=O)N[C@H](C(=O)N1CCC[C@H]1C(=O)Nc1ccc([C@@H]2CC[C@@H](c3ccc(NC(=O)[C@@H]4CCCN4C(=O)[C@@H](NC(=O)OC)C(C)C)cc3)N2c2ccc(C(C)(C)C)cc2)cc1)C(C)C` [OMBITASVIR] the Efficacy (Hepatitis C virus [1]) was 127%, the “Ratio EC50” value (Hepatitis C virus [2]) was 13 and the “Ratio EC50” value (Hepatitis C virus [3]) was 66739. For the same compound, the EC50 (Hepatitis C virus [4]) was 0.00171 nM, the logD [5] was 5.4 and the “Ratio EC50” value (Hepatitis C virus [6]) was 41382. The half-life [7] was 5 h, the Tmax [8] was 3.3 h and the EC50 (Hepatitis C virus [9]) was 0.0124 nM. For the same compound, the half-life [10] was 7.9 h, the AUC [11] was 8000 ng·h/mL and the “Ratio EC50” value (Hepatitis C virus [12]) was 415. The “Ratio EC50” value (Hepatitis C virus [13]) was 58, the Cmax [14] was 640 ng/mL and the Cmax [15] was 290 ng/mL. The Efficacy (Hepatitis C virus [16]) was 104%, the Tmax [17] was 3.7 h and the “Ratio EC50” value (Hepatitis C virus [18]) was 77. For the same compound, the half-life [19] was 15.9 h, the EC50 (Hepatitis C virus [20]) was 0.0043 nM and the Efficacy (Hepatitis C virus [21]) was 18%. The Efficacy (Hepatitis C virus [22]) was 25%, the “Ratio EC50” value (Hepatitis C virus [23]) was 10270 and the EC50 (Hepatitis C virus [24]) was 0.0193 nM. The Efficacy (Hepatitis C virus [25]) was 60%, the “Ratio EC50” value (Hepatitis C virus [26]) was 8 and the Activity (Homo sapiens [27]) was “Non-toxic”. The remaining at 0.5 h [28] was 60%, the Activity (Homo sapiens [29]) was “Non-toxic” and the EC50 (Hepatitis C virus [30]) was 0.014 nM. For the same compound, the EC50 (Hepatitis C virus [31]) was 0.056 nM.
